According to patent US11000033B2, “Ketone or oxime compound, and herbicide” (NISSAN CHEMICAL CORPORATION, priority 2014, dated 2021):

Tests used:
Type in all cases: in vivo
[1] = test system: soybean; experiment: Test Example 4: effect on crop by soil treatment (symbol d); settings: for d: soybean, effect grade on crop: 320 g/ha; for d (soybean) effect on crop grade: application herbicide amount 320 g/ha
Procedure, shortened: (§1)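 Crop seeds, among them rice, wheat, beet and rapeseed, were sown in sterilized diluvial soil and covered with about 1.5 cm of soil. Boxes were kept in a greenhouse at 25° C. to 30° C. for plant growth.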

[2] = test system: beet; experiment: Test Example 4: effect on crop by soil treatment (symbol f); settings: for f: beet, effect grade on crop: 320 g/ha; for f (beet) effect on crop grade: application herbicide amount 320 g/ha
Procedure, shortened: as §1

[3] = test system: Abutilon theophrasti; experiment: Test Example 4: herbicidal effect by soil treatment (symbol M); settings: for M: Abutilon theophrasti, herbicidal effect grade: 320 g/ha; for M (Abutilon theophrasti) herbicidal effect grade: application herbicide amount 320 g/ha
Procedure, shortened: (§2)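 Seeds were sown in sterilized diluvial soil, covered with about 1.5 cm of soil, and the soil surface was sprayed with a water-diluted emulsion of the compound at a predetermined rate. Plants grew in a greenhouse at 25° C. to 30° C.; effects were scored visually 3 weeks after application.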

[4] = test system: Leptochloa chinensis; experiment: Test Example 3: herbicidal effect by foliage application, Wagner pot (symbol D); settings: application herbicide amount 320 g/ha
Procedure, shortened: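 Foliar spray of a water-diluted emulsion at a predetermined herbicide amount, applied to 14-day-old plants. Seedlings were raised in flooded alluvial soil (0.1–0.5 cm water) at 25–30 °C in a greenhouse. Injury was rated after 3 weeks against fixed criteria.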

[5] = test system: transplanted rice plant; experiment: Test Example 1: effect on crop, application before weed generation in submerged conditions (symbol a); settings: application herbicide amount 320 g/ha
Procedure, shortened: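 Alluvial soil pots flooded to 4 cm water, sown with Echinochloa oryzacola, Scirpus juncoides and Monochoria vaginalis, then transplanted with 2.5 leaf stage rice seedlings; pre-emergence application. Greenhouse 25° C. to 30° C.; scored 0–5 by herbicidal ratio 3 weeks after application.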

[6] = test system: Avena fatua; experiment: Test Example 4: herbicidal effect by soil treatment (symbol I); settings: for I: Avena fatua, herbicidal effect grade: 320 g/ha; for I (Avena fatua) herbicidal effect grade: application herbicide amount 320 g/ha
Procedure, shortened: as §2

[7] = test system: beet; experiment: Test Example 5: effect on crop by foliage application, plastic box (symbol f); settings: 320 g/ha, 3 weeks after application
Procedure, shortened: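 Greenhouse test at 25° C. to 30° C. Seeds of crops and weeds were spot-sown in boxes of sterilized diluvial soil under roughly 1.5 cm soil cover, then grown for foliage treatment.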

[8] = test system: Scirpus juncoides; experiment: Test Example 2: herbicidal activity, application during weed generation in submerged conditions (symbol B); settings: Table 23; application herbicide amount 320 g/ha; grade 0-5 by criteria of Test Example 1
Procedure, shortened: (§3)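 Scoring of herbicidal effect took place 3 weeks after treatment, using the criteria of the earlier test. Treatment was water-surface application of diluted emulsifiable compound at a set dose. Plants were at one- to two-leaf stage in submerged alluvial soil (4 cm depth), greenhouse 25-30° C.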

[9] = test system: Abutilon theophrasti; experiment: Test Example 5: herbicidal effect by foliage application, plastic box (symbol M); settings: 320 g/ha, 3 weeks after application
Procedure, shortened: (§4)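 Seeds were sown in sterilized diluvial soil, covered with about 1.5 cm of soil and grown 14 days in a greenhouse at 25° C. to 30° C. An emulsifiable formulation diluted in water to a set rate was sprayed over foliage, and injury was scored 3 weeks later.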

[10] = test system: Lolium multiflorum Lam.; experiment: Test Example 5: herbicidal effect by foliage application, plastic box (symbol K); settings: 320 g/ha, 3 weeks after application
Procedure, shortened: as §4

[11] = test system: Echinochloa oryzacola Vasing.; experiment: Test Example 2: herbicidal activity, application during weed generation in submerged conditions (symbol A); settings: Table 23; application herbicide amount 320 g/ha; grade 0-5 by criteria of Test Example 1
Procedure, shortened: as §3

[12] = test system: Setaria viridis; experiment: Test Example 5: herbicidal effect by foliage application, plastic box (symbol G); settings: 320 g/ha, 3 weeks after application
Procedure, shortened: as §4

Compound	d: soybean, effect grade on crop [1]	f: beet, effect grade on crop [2]	M: Abutilon theophrasti, herbicidal effect grade [3]	herbicidal effect on D (Leptochloa chinensis), grade 0-5 [4]	Effect grade on crop, a: transplanted rice plant [5]	I: Avena fatua, herbicidal effect grade [6]	f: beet, effect on crop (criteria 0-5) [7]	Herbicidal effect grade, B: Scirpus juncoides [8]	M: Abutilon theophrasti, herbicidal effect (criteria 0-5) [9]	K: Lolium multiflorum Lam., herbicidal effect (criteria 0-5) [10]	Herbicidal effect grade, A: Echinochloa oryzacola Vasing. [11]	G: Setaria viridis, herbicidal effect (criteria 0-5) [12]	d (soybean) effect on crop grade [1]	f (beet) effect on crop grade [2]	M (Abutilon theophrasti) herbicidal effect grade [3]	I (Avena fatua) herbicidal effect grade [6]	f: beet, effect on crop grade [7]	M: Abutilon theophrasti, herbicidal effect grade [9]	K: Lolium multiflorum Lam., herbicidal effect grade [10]	G: Setaria viridis, herbicidal effect grade [12]
CON=C(C)CC1CC(OC(=O)COc2ccc(C(C)=O)cc2)=C(c2c(C)cc(C)cc2C)C1=O (stereo not drawn) [1-080]	1 (Herbicidal ratio of 5% or higher and lower than 20%)	0 (Herbicidal ratio of 5% or lower (almost no effect))	4 (Herbicidal ratio of 70% or higher and lower than 90%)	5 (Herbicidal ratio of 90% or more (almost completely withered))	5 (Herbicidal ratio of 90% or more (almost completely withered))	3 (Herbicidal ratio of 40% or higher and lower than 70%)	0 (Herbicidal ratio of 5% or lower (almost no effect))	4 (Herbicidal ratio of 70% or higher and lower than 90%)	4 (Herbicidal ratio of 70% or higher and lower than 90%)	5 (Herbicidal ratio of 90% or more (almost completely withered))	4 (Herbicidal ratio of 70% or higher and lower than 90%)	5 (Herbicidal ratio of 90% or more (almost completely withered))	–	–	–	–	–	–	–	–
CON=C(C)CC1CC(OC(=O)COc2ccc3ccccc3c2)=C(c2c(C)cc(C)cc2C)C1=O (stereo not drawn) [1-083]	1 (Herbicidal ratio of 5% or higher and lower than 20%)	0 (Herbicidal ratio of 5% or lower (almost no effect))	4 (Herbicidal ratio of 70% or higher and lower than 90%)	5 (Herbicidal ratio of 90% or more (almost completely withered))	5 (Herbicidal ratio of 90% or more (almost completely withered))	3 (Herbicidal ratio of 40% or higher and lower than 70%)	0 (Herbicidal ratio of 5% or lower (almost no effect))	4 (Herbicidal ratio of 70% or higher and lower than 90%)	4 (Herbicidal ratio of 70% or higher and lower than 90%)	5 (Herbicidal ratio of 90% or more (almost completely withered))	5 (Herbicidal ratio of 90% or more (almost completely withered))	5 (Herbicidal ratio of 90% or more (almost completely withered))	–	–	–	–	–	–	–	–
CC(CC1CC(O)=C(c2c(C)cc(C)cc2C)C1=O)=NOC(C)(C)C (stereo not drawn) [1-053]	–	–	–	5 (Herbicidal ratio of 90% or more (almost completely withered))	5 (Herbicidal ratio of 90% or more (almost completely withered))	–	–	0 (Herbicidal ratio of 5% or lower (almost no effect))	–	–	4 (Herbicidal ratio of 70% or higher and lower than 90%)	–	0 (Herbicidal ratio of 5% or lower (almost no effect))	0 (Herbicidal ratio of 5% or lower (almost no effect))	1 (Herbicidal ratio of 5% or higher and lower than 20%)	0 (Herbicidal ratio of 5% or lower (almost no effect))	0 (Herbicidal ratio of 5% or lower (almost no effect))	0 (Herbicidal ratio of 5% or lower (almost no effect))	5 (Herbicidal ratio of 90% or more (almost completely withered))	3 (Herbicidal ratio of 40% or higher and lower than 70%)
CON=C(C)CC1CC(OC(=O)COc2cccc(OC)c2)=C(c2c(C)cc(C)cc2C)C1=O (stereo not drawn) [1-068]	–	–	–	5 (Herbicidal ratio of 90% or more (almost completely withered))	5 (Herbicidal ratio of 90% or more (almost completely withered))	–	–	5 (Herbicidal ratio of 90% or more (almost completely withered))	–	–	5 (Herbicidal ratio of 90% or more (almost completely withered))	–	0 (Herbicidal ratio of 5% or lower (almost no effect))	0 (Herbicidal ratio of 5% or lower (almost no effect))	4 (Herbicidal ratio of 70% or higher and lower than 90%)	3 (Herbicidal ratio of 40% or higher and lower than 70%)	3 (Herbicidal ratio of 40% or higher and lower than 70%)	5 (Herbicidal ratio of 90% or more (almost completely withered))	5 (Herbicidal ratio of 90% or more (almost completely withered))	5 (Herbicidal ratio of 90% or more (almost completely withered))
COCCOC1=C(c2c(C)cc(C)cc2C)C(=O)C(CC(C)=NOC)C1 (stereo not drawn) [1-037]	–	–	–	0 (Herbicidal ratio of 5% or lower (almost no effect))	0 (Herbicidal ratio of 5% or lower (almost no effect))	–	–	0 (Herbicidal ratio of 5% or lower (almost no effect))	–	–	0 (Herbicidal ratio of 5% or lower (almost no effect))	–	0 (Herbicidal ratio of 5% or lower (almost no effect))	0 (Herbicidal ratio of 5% or lower (almost no effect))	0 (Herbicidal ratio of 5% or lower (almost no effect))	0 (Herbicidal ratio of 5% or lower (almost no effect))	0 (Herbicidal ratio of 5% or lower (almost no effect))	0 (Herbicidal ratio of 5% or lower (almost no effect))	0 (Herbicidal ratio of 5% or lower (almost no effect))	0 (Herbicidal ratio of 5% or lower (almost no effect))
CON=C(C)CC1CC(OC(=O)C=Cc2ccco2)=C(c2c(C)cc(C)cc2C)C1=O (stereo not drawn) [1-091]	0 (Herbicidal ratio of 5% or lower (almost no effect))	0 (Herbicidal ratio of 5% or lower (almost no effect))	1 (Herbicidal ratio of 5% or higher and lower than 20%)	5 (Herbicidal ratio of 90% or more (almost completely withered))	4 (Herbicidal ratio of 70% or higher and lower than 90%)	3 (Herbicidal ratio of 40% or higher and lower than 70%)	0 (Herbicidal ratio of 5% or lower (almost no effect))	3 (Herbicidal ratio of 40% or higher and lower than 70%)	4 (Herbicidal ratio of 70% or higher and lower than 90%)	5 (Herbicidal ratio of 90% or more (almost completely withered))	5 (Herbicidal ratio of 90% or more (almost completely withered))	5 (Herbicidal ratio of 90% or more (almost completely withered))	–	–	–	–	–	–	–	–
